Source: patent US20260200849A1, “CATIONIC LIPIDS AND PREPARATION METHOD THEREOF” (RiboX Therapeutics HK Limited, priority 2024, published 2026)
Where “and” joins values, the source holds several entries; their conditions need not be identical. Equal values may be shown once. Read-outs that look alike come from different tables or passages of the source.

Columns and labels:
[1] = RNA encapsulation efficacy (EE %) by Quant-IT Ribogreen kit; assay type: physicochemical; settings: LNP
Method: (§1) The LNP size and polydispersity index (PDI), determined by dynamic light scattering (DLS), and zeta potential were measured by a Zetasizer machine (Malvern). RNA concentration and encapsulation efficacy (EE %) were analyzed by the Quant-IT Ribogreen kit by calculating the percentage encapsulation at 100%—(RNA-LNPs/RNA-LNPs with Triton X-100).

C57BL/6J mice [2] = assay: In vivo expression by IM, luciferase RNA-LNPs, whole-body/injection site muscle/organ luminescence; settings: IM 1.0 mg/kg, 24 h post injection, male C57BL/6J mice N=3, Formulation 001, RNA 331
Method: 6-8 week old, male C57BL/6J mice (N=3) were injected with 1.0 mg*kg−1 of RNA-LNPs encoding for firefly-luciferase by intramuscular injection. At 24-hours post injection, animals were intraperitoneally injected with 15 mg/ml of Luciferin substrate and whole-body/injection site muscle/liver/spleen/kidney/heart/lung luminescence were determined by a bioluminescent in vivo imaging system (IVIS).

Balb/c mice = assay: In vivo expression by IV, 0.05 mg/kg luciferase RNA-LNPs, IVIS luminescence; settings: female Balb/c mice, 0.05 mg*kg−1 intravenous; for Whole body at 24 h (p/s) (Mean) / Whole body at 72 h (p/s) (Mean): Formulation No. 010, RNA No. 331; for Whole body at 24 h (p/s) (Mean): 24 hours post injection; for Whole body at 72 h (p/s) (Mean): 72 hours post injection
Method in brief: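 IVIS bioluminescence was read after IP luciferin (15 mg/ml): whole-body at 24 and 72 h, or whole-body/liver/spleen at 24 h. Dosing was a single IV injection of 0.05 mg*kg−1 RNA-LNPs encoding firefly luciferase into 7-8 week old female Balb/c mice, N=3.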

C57BL/6J mice [3] = assay: In vivo expression by ID, whole-body/injection site skin/lymph node luminescence; settings: intradermal 0.15 mg/kg, 72 h post injection, female C57BL/6J mice N=3, Formulation 001, RNA 331
Method: 7-8 week old, female C57BL/6J mice (N=3) were injected with 0.15 mg*kg−1 of RNA-LNPs encoding for firefly-luciferase by intradermal injection. At 72-hours post injection, animals were intraperitoneally injected with 15 mg/mi of Luciferin substrate and whole-body/injection site skin/lymph node luminescence were determined by a bioluminescent in vivo imaging system (IVIS).

Hep G2 cells [4] = assay: In vitro expression: luciferase activity in Hep G2 cells transfected with RNA-LNPs; assay type: cell-based; settings: 100 ng/mL RNA-LNPs, 72 hours post transfection
Method: 2E5 Hep G2 cells were transfected with 100 ng/mL of RNA-LNPs encoding for firefly-luciferase. At 72 hours post transfection, the cells were washed and lysed. The luciferase expression (2-well repeat) was determined in the cell lysates with the luciferase assay reagent kit (Promega), according to the kit protocol, luciferase activity was measured by a luminometer.

[5] = LNP size and polydispersity index (PDI) by dynamic light scattering (Zetasizer); assay type: physicochemical; settings: for Size (nm): RNA No. 331
Method: as §1

Hep G2 cells [6] = assay: In vitro toxicity: Hep G2 cell viability by CellTiter-Glo; assay type: cell-based; settings: 72 hours post transfection, cell only = 100%
Method: 2E5 Hep G2 cells were transfected with 1 μg/mL RNA-LNPs. At 72 hours post transfection, cell viability (2-well repeat) was determined with the CellTiter-Glo® reagent kit, according to the kit protocol, measured by a luminometer. Cell only as control (100%).
The cell viability was calculated according to the following formula: […]

[7] = In vivo lipid metabolism by IV: ionizable lipid concentration in plasma and liver by LC-MS/MS; design: species or system Sprague-Dawley (SD) rats; settings: IV 0.15 mg/kg RNA-LNPs (hEPO), male SD rats, individual animals N=3; for concentration at 6 h / concentration at 1 h / concentration at 168 h: male, Sprague-Dawley, rat, iv, 0.15 mg/kg
Method in brief: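 Male SD rats, 7-8 weeks old (N=3), given 0.15 mg*kg−1 hEPO-encoding RNA-LNPs IV. Plasma sampled at 1, 6, 96 and 168 h and liver at 6 and 168 h terminally; ionizable lipid quantified by LC-MS/MS, LLOQ 1 ng/mL plasma, 11 ng/g liver.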

[8] = Formulation No. 001, RNA No. 019 (hEPO)
[9] = Formulation No. 001, RNA No. 331
[10] = Formulation No. 010, RNA No. 331
[11] = Formulation No. 010, RNA No. 331 (firefly-luciferase)
[12] = Formulation No. 010 (Ionizable lipid:DSPC:cholesterol:DSPE-PEG2000 = 38:30:30:2, N/P 6)
[13] = 1 μg/mL RNA-LNPs, Formulation 001, RNA 331
[14] = Formulation No. 010, RNA No. 331, 1 μg/mL RNA-LNPs
[15] = liver, 6 h post injection, read-out: Liver (ng/g), ionizable lipid concentration
[16] = Formulation No. 001, RNA No. 331, 24-hours post injection

Row | Compound | EE (%) [1, 8] | EE (%) [1, 9] | EE (%) [1, 10] | Heart (p/s) (C57BL/6J mice [2]) | Injection site muscle (p/s) (C57BL/6J mice [2]) | Kidney (p/s) (C57BL/6J mice [2]) | Liver (p/s) (C57BL/6J mice [2]) | Lung (p/s) (C57BL/6J mice [2]) | Spleen (p/s) (C57BL/6J mice [2]) | Whole body (p/s) (C57BL/6J mice [2]) | Whole body at 24 h (p/s) (Mean) (Balb/c mice) | Whole body at 72 h (p/s) (Mean) (Balb/c mice) | Injection site Skin (p/s) (C57BL/6J mice [3]) | Lymph node (p/s) (C57BL/6J mice [3]) | Whole body (p/s) (C57BL/6J mice [3]) | In vitro Expression (Mean) (Hep G2 cells [4]; Formulation 001, RNA 331) | In vitro Expression (Mean) (Hep G2 cells [4]; [11]) | PDI [5, 8] | Size [5, 8] | PDI [5, 9] | further results
1 | CCCCC/C=C\C/C=C\CCCCCCCC(=O)NC(COC(=O)NCCN1CCCCC1)C(=O)OCCCCCCCC(=O)OC(CCCCCCCC)CCCCCCCC (centres unmarked) [Lipid 549] | 94.25% | 94.58% | 96.68% | 8.09E+05 p/s | 2.75E+08 p/s | 1.23E+07 p/s | 1.76E+08 p/s | 1.24E+06 p/s | 6.26E+07 p/s | 1.10E+09 p/s | 2.75E+08 p/s | 7.85E+07 p/s | 3.41E+06 p/s | 3.17E+06 p/s | 4.38E+07 p/s | 7.02E+05 | 5.75E+05 | 0.04 | 64.53 nm | 0.04 | Size [5, 9]: 61.34 nm; Size (nm) [5, 12]: 57.35 nm; PDI [5, 10]: 0.13; In vitro cell viability (%) (Mean) (Hep G2 cells [6]; [13]): 79.09%; In vitro cell viability (%) (Mean) (Hep G2 cells [6]; [14]): 88.89%
2 | CCCCCCCC/C=C\CCCCCCCC(=O)NC(COC(=O)NCCN1CCCCC1)C(=O)OCCCCCCCCOC(=O)C(CCCCCC)CCCCCCCC (centres unmarked) [Lipid 700] | 96.00% | 94.45% | 96.73% | 1.79E+05 p/s | 3.07E+08 p/s | 9.03E+05 p/s | 8.73E+07 p/s | 3.11E+05 p/s | 1.21E+07 p/s | 5.65E+08 p/s | 3.40E+08 p/s | 1.34E+08 p/s | 1.75E+07 p/s | 1.57E+06 p/s | 8.00E+07 p/s | 7.16E+05 | 3.61E+05 | 0.06 | 68.99 nm | 0.06 | Plasma (ng/mL), ionizable lipid concentration ([7]; 1 h post injection): 1272 ng/mL and 1635 ng/mL; Liver (ng/g), ionizable lipid concentration ([7]; 6 h post injection): 25720 ng/g and 25028 ng/g; Plasma (ng/mL), ionizable lipid concentration ([7]; 6 h post injection): 359 ng/mL and 641 ng/mL and 966 ng/mL; Plasma (ng/mL), ionizable lipid concentration ([7]; 96 h post injection): 5.84 ng/mL and 4.4 ng/mL and 28.6 ng/mL; Liver (ng/g), ionizable lipid concentration ([7]; 168 h post injection): 696.6 ng/g and 191.6 ng/g and 236.8 ng/g; Plasma (ng/mL), ionizable lipid concentration ([7]; 168 h post injection): 1.24 ng/mL and 9.51 ng/mL; concentration at 6 h [7, 15]: 26800 ng/g; concentration at 1 h ([7]; plasma, 1 h post injection): 1440 ng/mL; Size [5, 9]: 62.57 nm; Size (nm) [5, 12]: 55.29 nm; PDI [5, 10]: 0.07; In vitro cell viability (%) (Mean) (Hep G2 cells [6]; [13]): 78.82%; In vitro cell viability (%) (Mean) (Hep G2 cells [6]; [14]): 99.10%
3 | CCCCCCCCC(CCCCCC)C(=O)OCCCCCCCCOC(=O)NC(COC(=O)NCCN1CCCCC1)C(=O)OCCCCCCCCOC(=O)C(CCCCCC)CCCCCCCC (centres unmarked) [Lipid 888] | 97.48% | 93.81% | – | – | – | – | – | – | – | – | – | – | – | – | – | – | – | 0.05 | 59.39 nm | 0.01 | Plasma (ng/mL), ionizable lipid concentration ([7]; 1 h post injection): 1635 ng/mL and 1440 ng/mL; Liver (ng/g), ionizable lipid concentration ([7]; 6 h post injection): 31120 ng/g and 47483 ng/g; Plasma (ng/mL), ionizable lipid concentration ([7]; 6 h post injection): 966 ng/mL and 975 ng/mL; Plasma (ng/mL), ionizable lipid concentration ([7]; 96 h post injection): 28.6 ng/mL (2×) and 12.9 ng/mL; Liver (ng/g), ionizable lipid concentration ([7]; 168 h post injection): 2277 ng/g and 2814 ng/g; Plasma (ng/mL), ionizable lipid concentration ([7]; 168 h post injection): 9.51 ng/mL and 8.26 ng/mL; concentration at 6 h [7, 15]: 48800 ng/g; concentration at 168 h ([7]; liver, 168 h post injection, read-out: Liver (ng/g), ionizable lipid concentration): 1640 ng/g; concentration at 1 h ([7]; plasma, 1 h post injection): 1640 ng/mL; concentration at 6 h ([7]; plasma, 6 h post injection, read-out: Plasma (ng/mL), ionizable lipid concentration): 966 ng/mL; concentration at 168 h ([7]; plasma, 168 h post injection, read-out: Plasma (ng/mL), ionizable lipid concentration): 9.51 ng/mL; Liver (p/s) (Mean) (Balb/c mice; [16]): 2.18E+08 p/s; Spleen (p/s) (Mean) (Balb/c mice; [16]): 7.61E+07 p/s; Whole body (p/s) (Mean) (Balb/c mice; [16]): 1.35E+09 p/s; In vitro Expression (Mean) (Hep G2 cells [4]; Formulation No. 001, RNA No. 331 (firefly-luciferase)): 4.84E+05; Size (nm) ([5]; Formulation No. 001 (Ionizable lipid:DSPC:cholesterol:DMG-PEG2000 = 50:10:38.5:1.5, N/P 6)): 62.46 nm; In vitro cell viability (%) (Mean) (Hep G2 cells [6]; Formulation No. 001, RNA No. 331, 1 μg/mL RNA-LNPs): 89.73%
